Columns and labels:
[1] = system: liver cancer cells (HepG2); assay: Live cell time-lapse microscopy, uptake of fluorescent labeled hemoglobin subunits in cancer cells; type: cell-based; settings: with heme (+) or without heme (−), 0.1% O2, FIG. 10
From the text: The pharmaceutical composition of the present invention comprises recombinant hemoglobin protein or recombinant hemoglobin tetramer or dimer or subunit-based therapeutic agent capable of both targeting and killing the cancer cells. […] The fluorescent labeled recombinant hemoglobin subunits can also enter into the cancer cells (e.g., liver cancer cells, HepG2) and localize in there, and the result is illustrated in FIG. 10. It is expected that the chemically modified recombinant hemoglobin protein or tetramer or dimer or subunit-based therapeutic agent can also kill the cancer cells and progenitor cells/cancer stem cells effectively.
Cancer cells (HepG2) are cultured in DMEM (Invitrogen) with 10% Fetal bovine serum (FBS), 100 U/mL penicillin and 100 μg/mL streptomycin at 37° C. For normoxic condition, cells are incubated with ambient O2 concentration and 5% CO2; for hypoxic condition, cells are incubated with 0.1-0.5% O2 (Quorum FC-7 automatic CO2/O2/N2 gas mixer) and 5% CO2.
Cancer cells (e.g. HepG2 liver cancer cells) are seeded onto glass bottom microwell dishes (MatTek Corporation). Live cells at defined zooms (63×, 20×) are acquired using Zeiss Observer Z1 widefield microscope, equipped with atmospheric/temperature-controlled chamber and motorized stage for multi-positional acquisition. The incubation is performed in an enclosed live cell imaging system purged with 0.1% O2 and 5% CO2 (premixed). Cells are exposed to the fluorescent labeled recombinant hemoglobin subunits (α, β, γ1, γ2); for 15 min prior to the acquisition of images every 3 min for a period of 2 h. Images are deconvolved and compacted into time-lapse movies using the MetaMorph software (Molecular Device).

[2] = HPLC analysis of disulfide bond cleavage under reducing condition (GSH); type: physicochemical; settings: PBS buffer (pH 7.4), 37° C., GSH 0.4-1000 equiv, 0-2 hrs
From the text: The glutathione (GSH) level is much higher in the cytoplasm of cancer cells (˜1000 equiv) when compared to blood stream (˜1 equiv). A therapeutic drug with a disulfide bond can be cleaved much more easily in the cytoplasm of cancer cells with high concentration of GSH. A high-performance liquid chromatography (HPLC) analysis for the cleavage of model compound (N-(2-mercaptoethyl)benzamide) with disulfide bond under reducing condition is shown in FIG. 12. The cleavage of model compound is observed in PBS buffer (pH 7.4) at 37° C. with different concentration of glutathione (GSH) (0.4-1000 equiv). […] In the present invention, the recombinant hemoglobin protein or recombinant hemoglobin tetramer or dimer or subunit linked with a therapeutic drug (e.g. chemotherapeutic agent, radiotherapeutic agent, anti-cancer protein drug) by a disulfide bond is prepared for cancer treatment.

[3] = native human hemoglobin, comparison value; cited from earlier work

Row | Compound | entry into / uptake by liver cancer cells [1] | further results
1 | β: recombinant human hemoglobin monomer β (146 amino acids), with or without heme | can enter into liver cancer cells (HepG2) successfully | 
2 | O=C(NCCS)c1ccccc1 [model compound, N-(2-mercaptoethyl)benzamide] |  | cleavage of disulfide bond at different GSH levels [2]: better at high concentration of GSH (>50 equiv)
3 | native human hemoglobin: native human hemoglobin, comparison for p50 |  | p50 value (oxygen partial pressure necessary to produce 50 percent saturation of hemoglobin) [3]: 23-30 mm Hg
4 | γ2: recombinant human hemoglobin monomer γ2 (146 amino acids), with or without heme | can enter into liver cancer cells (HepG2) successfully | 
5 | α: recombinant human hemoglobin monomer α (141 amino acids), with or without heme | can enter into liver cancer cells (HepG2) successfully | 
6 | γ1: recombinant human hemoglobin monomer γ1 (146 amino acids), with or without heme | can enter into liver cancer cells (HepG2) successfully | 
